The subject of one assay is LS180 cells. As to the kind of experiment: Metastatic lung tumor formation in SCID mice (LS180). The format is in vivo. Here is the method: Tumor formation. LS180 cells were grown in the presence or absence of 50 μM AcGnG-NM for 6 days, harvested with EDTA, and resuspended in sterile PBS. Approximately 3×10^5 tumor cells in 150 μl PBS were injected into the lateral tail vein of anesthetized 7 week-old immunodeficient mice (Fox Chase SCID; Charles River). The mice were then maintained in microbe-free housing with free access to standard laboratory chow and water, and inspected regularly for any signs of distress. After 4 weeks, mice were euthanized by CO2 asphyxiation under anesthesia, and lungs, livers, brains, kidneys/adrenals, and spleens were fixed in Bouin's solution (Sigma) for 6 hr followed by transfer to 70% ethanol. Lungs for each animal were inspected under a dissecting microscope for the total number of surface tumors. Histologic sections (hematoxylin/eosin) were examined for tumor foci, and representative photomicrographs were taken. The other organs were also reviewed histologically for any tumor foci.
Impairment of metastatic tumor formation. Prior studies have shown that deletion of P-selectin in mice alters the tumorigenicity of hematogenously distributed LS180 cells. Kim et al., Proc. Natl. Acad. Sci. USA, 95: 9325-9330, 1998. […] After 4 weeks, the animals were sacrificed and formation of lung tumor foci was assessed at necropsy by counting nodules on the lung surface and in histologic sections.

The next assay deals with U937 cells. Kind of assay: sLe^X expression in U937 cells. It counts as cell-based. The text has this:
(§1) A 4-deoxy modified acetylated disaccharide inhibits sLe^X expression in the absence of oligosaccharide priming.

In another assay the test system is LLC cells. Kind of assay: In vitro characterization of LLC cells (CSLEX-1 binding, lectin and PsIg flow cytometry). The format is cell-based. The method, then: LLC cells were treated in culture for 4 days in the absence or presence of 50 μM peracetylated GlcNAcβ3Gal-NM. To quantitate sLex on the surface of LLC cells monoclonal antibody, CSLEX-1 binding to the cells was measured as described (Brown et al, J. Biol. Chem. 278: 23352-23359, 2003). […] Flow cytometry measures cell surface carbohydrate structures (Koenig et al, 1998). AAL and MAH are plant lectins. […] LLC cells have higher sialyltransferase activity than fucosyltransferase activity.

The next assay deals with mixed oligosaccharides. Kind of assay: Oligosaccharide priming, [6-3H]Gal incorporation. It counts as cell-based.
Source text: as §1

The subject of assay [1] is LS180 cells adhering to recombinant E-selectin. As to the kind of experiment: Cell adhesion to immobilized E-selectin. It counts as cell-based, human. The following applies: LS180 cells grown 5 days with disaccharide. Here is the method:
Cell adhesion to immobilized selectins. 96-well plates were coated overnight at 4° C. with recombinant E-selectin (4 μg/ml) or P-selectin (2 μg/ml) (R & D Systems) and blocked with 1% BSA/PBS. LS180 cells were grown for 5 days with various amounts of acetylated disaccharide, harvested, labeled with Calcein AM (5 μM, Molecular Probes) in DMEM/1% FBS, and allowed to settle at room temperature on selectin-coated wells (5×10^4 cells/well). Plates were then stirred at 75 rpm for 30 min (Orbit shaker, Lab-Line Instruments) followed by immersion upside-down in a vessel filled with Hank's buffered saline solution (HBSS, Sigma), which allowed non-adherent cells to fall under gravity. St John et al., J. Immunol Methods, 170: 159-166, 1994. The wells were then washed by aspiration using HBSS. LS180 cells were less adherent to P-selectin, so the immersion step was not necessary prior to washing. […] Fluorescence was measured using a 96-well fluorimeter (CytoFluor II), and the average of triplicate measurements was determined±standard error. Cell viability was judged to be >90% by Trypan blue exclusion at the end of each experiment.
Adhesion to selectins is altered in disaccharide-treated tumor cells. Treatment of LS180 cells with AcGnG-NM was not toxic to the cells up to 100 μM based on growth curves and exclusion of Trypan blue. […]

The test system of assay [2] is sialyl Lewis X in HL-60, LS180, murine Lewis lung carcinoma, B16 murine melanoma cells. Kind of assay: Inhibition of sialyl Lewis X formation in cultured cells. The format is cell-based. The text has this:
The disaccharides can be acylated with, e.g., acetyl, butyryl or benzoyl groups to reduce their hydrophilicity and make them permeable to cell membranes. […] The various disaccharides described above and their acylated or aryl derivatives are logical extensions of the present invention. In addition, analogs of the above compounds in which critical hydroxyl groups are missing or alkylated would bind to glycosyltransfersase and inhibit their activity.

Consider “GlcNAcβ1,3Galβ-O-naphthalenemethanol [AcGnG-NM]”, for which the lung tumor foci result in the assay on LS180 cells (cells pretreated with 50 μM for 6 days, 4 weeks, n=8, p<0.0002) is “less numerous”. In the assay on LS180 cells (treated versus untreated cells), the tumor size result is “approximately the same”. In addition, the “sLe^X expression” value in the assay with U937 cells is “inhibit sLe^X expression”. Besides, in the assay with LLC cells (50 μM, 4 days), the “sLex expression (CSLEX-1 binding)” value is “reduces sLex expression”. In addition, in the assay with LLC cells (flow cytometry), the “AAL reactivity (fucose)” value is “reduces AAL reactivity” and the “sialylation (MAH)” value is “no effect on sialylation”. For the same substance, in the assay with mixed oligosaccharides, the “incorporation of [6-^3H]Gal into mixed oligosaccharides” value was “stimulates”. In addition, the “adhesion to recombinant E-selectin” value in assay [1] is reported as “reduced the ability of LS180 cells to adhere”. Also, in assay [2], the “formation of sialyl Lewis X” value is recorded as “inhibit the formation of sialyl Lewis X”.

Source of the values: patent publication US7772192B2, “Compositions and methods for treatment of disease with acetylated disaccharides” (The Regents of the University of California, priority 2003, dated 2010).
